# Test results reported in patent US7329678B2, “Chemical compounds” (SmithKline Beecham Corporation, priority 2003, dated 2008).
# Counter-ions that a name gives are not always drawn.
# Target: T1, Serum Glucocorticoid-regulated Kinase-1 (SGK-1) (Homo sapiens, UniProt O00141, S422D)
# T1 construct: a truncated form of the human enzyme that included amino acids 61-431; 6xHis (N); made in house
# T1 sequence (O00141 61-431 S422D): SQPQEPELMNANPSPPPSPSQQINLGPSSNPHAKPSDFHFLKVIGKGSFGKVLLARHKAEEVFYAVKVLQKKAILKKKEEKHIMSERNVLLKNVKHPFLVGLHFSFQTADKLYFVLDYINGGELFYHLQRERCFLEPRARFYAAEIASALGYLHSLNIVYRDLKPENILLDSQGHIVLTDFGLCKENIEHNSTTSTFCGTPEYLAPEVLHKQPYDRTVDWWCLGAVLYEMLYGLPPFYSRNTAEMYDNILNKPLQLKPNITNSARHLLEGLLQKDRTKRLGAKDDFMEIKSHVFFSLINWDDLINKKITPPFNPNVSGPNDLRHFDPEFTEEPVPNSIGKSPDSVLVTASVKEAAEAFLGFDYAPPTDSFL
# Test: SGK-1 Enzyme Assay (SGK1e), substrate phosphorylation, scintillation proximity
# Format: biochemical
# Settings: truncated human SGK-1 (aa 61-431, S422D), 10 μM ATP, Crosstide substrate
# Protocol: SGK-1 Enzyme Assay (SGK1e):
# Compounds of the present invention were tested for Serum Glucocorticoid-regulated Kinase-1 (SGK-1) protein serine/threonine kinase inhibitory activity in substrate phosphorylation assays using enzyme purified from a baculovirus expression vector system. The recombinant baculovirus was made to express the intracellular domain of SGK-1 (GenBank accession number AAD41091). The virus expressed a truncated form of the human enzyme that included amino acids 61-431. Serine 422 was replaced with Aspartic acid to activate the enzyme, and 6 Histidine residues were added at the amino terminus to facilitate purification. The protein was purified using Ni-NTA agarose affinity chromatography. The peptide substrate was an N-terminal biotinylated synthetic peptide named Crosstide (biotin-Ahx-GRPRTSSFAEG-OH), corresponding to the sequence in GSK3 surrounding the serine phosphorylated by MAPKAP Kinase-1/Rsk and p70 S6 Kinase.
# The method measures the ability of the isolated enzyme to catalyze the transfer of the γ-phosphate from ATP onto serine/threonine residues in the biotinylated Crosstide. Reactions were performed in 96-well polystyrene round-bottom plates in a final volume of 30 μL. Reaction mixtures contained 62.5 mM HEPES (pH 7.4), 10 mM MgCl2, 0.1 mM EDTA, 0.0024% TWEEN-20, and 1 mM DTT (added fresh daily), 10 μM ATP, 0.2 μCi [[ν-^33P] ATP per reaction, 4 μM Crosstide peptide substrate, and 1 nM SGK1 enzyme. Reactions were initiated by adding the indicated enzyme. The reaction was allowed to proceed for 2 hours, then terminated by the addition of 50 mM EDTA and quantified using a scintillation proximity assay procedure as described (McDonald, O. B., Antonsson, B., Arkinstal, S., Marshall, C. J., and Wood, E. R. (1999) Analytical Biochemistry, 268, 318-329).
# Compounds under analysis were dissolved in Me2SO to 1 mM and serially diluted 1 to 3 with Me2SO through eleven columns of a 96 well plate. 1 μL of each concentration was transferred to the corresponding well of the assay plate. This created a final compound concentration range from 0.56 nM to 33.3 μM.
# The data for dose responses were plotted as % Control calculated with the data reduction formula 100*(U1−C2)/(C1−C2) versus concentration of compound and fitted to the curve described by: y=((Vmax*x)/(K+x)) where Vmax is the upper asymptote and K is the IC50.
row,Structure (SMILES),IC50 [µM]
1,"Nc1ncc(-c2ccccc2)cc1-c1nc2ccccc2[nH]1 [Example 1, 3-(1H-benzimidazol-2-yl)-5-phenylpyridin-2-amine hydrochloride]",< 1
2,"Nc1ncc(-c2ccccc2)cc1-c1nc2ccc(S(N)(=O)=O)cc2[nH]1 [Example 4, 2-(2-amino-5-phenylpyridin-3-yl)-1H-benzimidazole-6-sulfonamide hydrochloride]",< 1
3,"COC(=O)c1ccc2nc(-c3cc(-c4cccc(OC)c4)cnc3N)[nH]c2c1 [Example 7, Methyl 2-[2-amino-5-(3-methoxyphenyl)pyridin-3-yl]-1H-benzimidazole-6-carboxylate hydrochloride]",< 1

# Further lines, results first:
row,IC50 [µM],Structure (SMILES)
1,< 1,"COc1cccc(-c2cnc(N)c(-c3nc4cc(Cl)c(F)cc4[nH]3)c2)c1 [Example 11, 3-(5-chloro-6-fluoro-1H-benzimidazol-2-yl)-5-(3-methoxyphenyl)pyridin-2-amine hydrochloride]"
2,< 1,"Nc1ncc(-c2ccc(F)cc2)cc1-c1nc2ccc(S(N)(=O)=O)cc2[nH]1 [Example 14, 2-[2-amino-5-(4-fluorophenyl)pyridin-3-yl]-1H-benzimidazole-6-sulfonamide]"
3,< 1,"Cc1cccc2[nH]c(-c3cc(-c4ccc(F)cc4)cnc3N)nc12 [Example 17, 5-(4-fluorophenyl)-3-(4-methyl-1H-benzimidazol-2-yl)pyridin-2-amine]"
